Patent EP1792618A1, “R-mirtazapine for the treatment of pain” (Freynhagen, Rainer, priority 2005, dated 2007)

Experiments:
neuropathic pain = details: chronic constriction injury model, rats; cited from earlier work
thermal pain = details: 3-30 mg/kg intraperitoneally, rats; cited from earlier work
[1] = tested on: acute nociceptive responses; details: rats; cited from earlier work
[2] = tested on: hypothermic response to a 5-HT1-agonist; details: normal rats, chronic administration; compared with one of the enantiomers alone; cited from earlier work
acute thermal pain = assay: Plantar test (radiant heat, Hargreaves): paw withdrawal latency after intrathecal injection; type: in vivo, Male Wistar rats; details: for Paw withdrawal latencies: 240 minutes after injection, mean ± sem, vehicle 11.2 ± 0.24 s, cut-off 20 sec; for overall effect on acute thermal pain over the dose range tested: 0.001 to 1 mg/kg intrathecal; for time after injection of the maximum of pro- or antinociception: intrathecal injection
Method: The pro- or antinociceptive properties of (+/-)-mirtazapine and its enantiomers R(-)-mirtazapine and S(+)mirtazapine, respectively, were analyzed in acute thermal pain (Hargreaves et al., Pain, 32 (1988) 77-88). Male Wistar rats weighing 350-400 g (housed three per cage, access to foot and water ad libitum, room maintained at 22°C ± 0,5°C and on a 12:12 light- dark cycle) were anesthetized with intraperitoneal (i.p.) injection of pentobarbital (60 mg/kg i.p.). The rats were implanted with polyethylene catheters (inner diameter 0.28 mm, outer diameter 0.61 mm), which were advanced from the cisterna magna to the rostral edge of the lumbar enlargement as described before (Muth-Selbach et al., Anesthesiology, 101 (2004) 753-8; Ahmadi et al., Science, 300, (2003) 2094-2097; Zeilhofer et al., J Neurosci 20 (2000) 4922-9). Rats with impaired motor function after catheter implantation were excluded from the study. Paw withdrawal latencies were tested 6-10 days after surgery at all times in the same air conditioned room. The lateral plantar surface of both hind paws was exposed to a defined radiant heat stimulus through a transparent perspex surface (Plantar Test, Hugo Basile Inc., Italy, Comerio) and paw withdrawal latencies were recorded (Hargreaves et al., op.cit.). The animal is unrestrained and unhandled during experiments. When the rat feels pain and withdraws its paw, the sudden drop of reflected radiation switches off the I.R. source and stops the reaction time counter so that the withdrawal latency to the nearest 0.1 s is determined. Paw withdrawal latencies of both hind paws were determined from 4 independent measurements for each time point. A cut-off time of 20 sec was set to avoid tissue damage.
Behavior as described above was tested before and 120, 240 min and 24 hours after application of either substance. In order to find the maximum effect over time, groups of 4 animals were tested before and 30, 60, 120, 180, 240 min and 24 hours after application of 0.1 mg/kg (+/-)-mirtazapine.
(+/-)-Mirtazapine, R(-)-mirtazapine, S(+)mirtazapine or vehicle (0.9% NaCl) were applied to the cerebrospinal fluid via intrathecal catheters in a total volume of 10 µl. Rats were randomly assigned to the different treatment groups consisting of 6 to 9 rats each. All behavioral observations were performed in a standardized blinded fashion.
After the behavioral tests, rats were sacrificed by a lethal dose of pentobarbital i.p.. Proper position of the catheter tip was verified after laminectomy and methylene blue injection through the catheter. All behavioral tests were performed with permission of the German authorities concerned with the law on experiments involving animals and were in accordance with the guidelines of the International Association for the Study of Pain.
(+/-)-Mirtazapine (1, 2, 3, 4, 10, 14b-Hexahydro-2-methyl-pyrazino-[2, 1-a] pyrido [2, 3-c] [2] benzazepin, free base), R(-)-mirtazapine and S(+)-mirtazapine maleate salt were generously donated by N.V. Organon, Oss (The Netherlands) and were of the highest quality available. All chemicals were dissolved in 0.9 % NaCl and stored in aliquots at - 70°C. Fresh dilutions were made with 0.9 % NaCl on every experimental day.
Group data are presented as mean + standard error of the mean(sem). Withdrawal latencies in the different treatment groups were analyzed by analysis of variance (repeated measurements) followed by LSD post hoc tests (SAS Software System). P ≤ 0.05 was assumed significant. In detail, for each dose (i.e. 1, 0.1, 0.01 and 0.001 mg/kg) twelve comparisons were made at five time points.

[3] = tested on: α2-adrenergic autoreceptors; details: compared with R(-)-mirtazapine; cited from earlier work
[4] = 0.001 mg/kg intrathecal (lowest dose)
[5] = 0.01 mg/kg intrathecal, time points 120, 240 minutes, 24 hours as stated per substance
[6] = 0.1 mg/kg intrathecal, time points 120, 240 minutes, 24 hours as stated per substance
[7] = 1 mg/kg intrathecal, time points 120, 240 minutes, 24 hours as stated per substance

Row | Compound | mechanical allodynia (neuropathic pain) | mechanical hyperalgesia (neuropathic pain) | thermal hyperalgesia (neuropathic pain) | antinociceptive activity in thermal pain (hot plate) (thermal pain) | acute nociceptive responses in the tail flick test [1] | hypothermic response to a 5-HT1-agonist [2] | pro- or antinociceptive effect (acute thermal pain; [4]) | Paw withdrawal latencies (acute thermal pain; 0.001 mg/kg intrathecal) | Paw withdrawal latencies (acute thermal pain; 0.01 mg/kg intrathecal) | pro- or antinociceptive effect (acute thermal pain; [5]) | Paw withdrawal latencies (acute thermal pain; 0.1 mg/kg intrathecal) | pro- or antinociceptive effect (acute thermal pain; [6]) | Paw withdrawal latencies (acute thermal pain; 1 mg/kg intrathecal) | pro- or antinociceptive effect (acute thermal pain; [7]) | overall effect on acute thermal pain over the dose range tested (acute thermal pain) | time after injection of the maximum of pro- or antinociception (acute thermal pain) | potency as blocker of α2-adrenergic autoreceptors [3]
1 | CN1CCN2c3ncccc3Cc3ccccc3C2C1 (racemic) [(+/-)-mirtazapine, 1,2,3,4, 10, 14b-Hexahydro-2-methyl-pyrazino-[2,1-a] pyrido [2,3-c] [2] benzazepin] | not | significantly attenuated | significantly attenuated | exhibited antinociceptive activity | did not affect | potentiated | neither pro- nor antinociceptive | 11.5 ± 0.9 s | 14.5 ± 1.0 s | antinociceptive | 14.4 ± 0.3 s | antinociceptive | 6.9 ± 0.4 s | profound pronociceptive effect | dose-dependently exerted pro- and- antinociceptive activity | 240 min | 
2 | CN1CCN2c3ncccc3Cc3ccccc3[C@@H]2C1 [R(-)-mirtazapine] |  |  |  |  |  |  | neither pro- nor antinociceptive | 11.3 ± 0.9 s | 15.6 ± 0.6 s | antinociceptive | 13.8 ± 0.4 s | antinociceptive | 13.5 ± 0.5 s | antinociceptive | only elicited antinociceptive effects | 240 min | 
3 | CN1CCN2c3ncccc3Cc3ccccc3[C@H]2C1 [S(+)-mirtazapine] |  |  |  |  |  |  | neither pro- nor antinociceptive | 8.7 ± 0.8 s | 8.4 ± 1.1 s | pronociceptive | 8.1 ± 1.0 s | pronociceptive | 7.4 ± 0.4 s | pronociceptive | exclusively pronociceptive | 240 min | more potent blocker
